# Values of other authors as cited in patent publication US20200179352A1, “USE OF VALBENAZINE FOR TREATING LEVODOPA-INDUCED DYSKINESIA” (Neurocrine Biosciences, Inc., priority 2017, published 2020).
# Conditions: series of 448 patients with various hyperkinetic movement disorders treated with tetrabenazine from 1997-2004
structure (smiles),measurement,value
"COc1cc2c(cc1OC)C1CC(=O)C(CC(C)C)CN1CC2 (stereo not shown) [tetrabenazine, 3-isobutyl-9,10-dimethoxy-1,3,4,6,7,11b-hexahydro-2H-pyrido[2,1-a]isoquinolin-2-one]",adverse event rate for parkinsonism,15.4%
